Test results taken from PubChem BioAssay AID1918954 (Molecular Pharmacology Branch, DTP, NCI, 2023).

Tested on: MDA-MB-468 complex spheroids with HUVEC/MSC, viability
Assay: Anticancer human tumor MDA-MB-468 cell line growth inhibition;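 note: spheroids exposed to agents for seven days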;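 for viability, T/C: 100% = DMSO vehicle control viability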
Conditions: for IC50: curve of first compound; for viability, T/C: stronger effect = lower value
In short: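 Complex spheroids of tumor cells with HUVEC and human MSCs, exposed to iadademstat combined with other agents. Each agent tested in half-log steps from near clinical Cmax (else 10 microM top), DMSO ≤0.25%.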

[1] = second compound 0.1 µM, first compound 0.0316 µM
[2] = second compound 0.1 µM, first compound 0.1 µM
[3] = second compound 0.1 µM, first compound 0.316 µM
[4] = second compound 0.1 µM, first compound 1 µM
[5] = second compound 0.316 µM, first compound 0.0316 µM
[6] = second compound 0.316 µM, first compound 0.1 µM
[7] = second compound 0.316 µM, first compound 0.316 µM
[8] = second compound 0.316 µM, first compound 1 µM
[9] = second compound 1 µM, first compound 0.0316 µM
[10] = second compound 1 µM, first compound 0.1 µM
[11] = second compound 1 µM, first compound 0.316 µM
[12] = second compound 1 µM, first compound 1 µM
[13] = second compound 3.16 µM, first compound 0.0316 µM
[14] = second compound 3.16 µM, first compound 0.1 µM
[15] = second compound 3.16 µM, first compound 0.316 µM
[16] = second compound 3.16 µM, first compound 1 µM
[17] = second compound 10 µM, first compound 0.0316 µM
[18] = second compound 10 µM, first compound 0.1 µM
[19] = second compound 10 µM, first compound 0.316 µM
[20] = second compound 10 µM, first compound 1 µM
[21] = second compound 0.1 µM, first compound 0.00949 µM
[22] = second compound 0.1 µM, first compound 0.03 µM
[23] = second compound 0.1 µM, first compound 0.0949 µM
[24] = second compound 0.1 µM, first compound 0.3 µM
[25] = second compound 0.316 µM, first compound 0.00949 µM
[26] = second compound 0.316 µM, first compound 0.03 µM
[27] = second compound 0.316 µM, first compound 0.0949 µM
[28] = second compound 0.316 µM, first compound 0.3 µM
[29] = second compound 1 µM, first compound 0.00949 µM
[30] = second compound 1 µM, first compound 0.03 µM
[31] = second compound 1 µM, first compound 0.0949 µM
[32] = second compound 1 µM, first compound 0.3 µM
[33] = second compound 3.16 µM, first compound 0.00949 µM
[34] = second compound 3.16 µM, first compound 0.03 µM
[35] = second compound 3.16 µM, first compound 0.0949 µM
[36] = second compound 3.16 µM, first compound 0.3 µM
[37] = second compound 10 µM, first compound 0.00949 µM
[38] = second compound 10 µM, first compound 0.03 µM
[39] = second compound 10 µM, first compound 0.0949 µM
[40] = second compound 10 µM, first compound 0.3 µM

## CC1COCCN1c1cc(C2(S(C)(=N)=O)CC2)nc(-c2ccnc3[nH]ccc23)n1 (stereo not given) + NC1CC1c1ccc(-c2cccc(O)c2)cc1
Second compound 0.1 µM
  IC50: 714 nM
Second compound 0.316 µM
  IC50: 771 nM
Second compound 1 µM
  IC50: 613 nM
Second compound 3.16 µM
  IC50: 603 nM
Second compound 10 µM
  IC50: 189 nM
[1]
  viability, T/C: 80%
[2]
  viability, T/C: 88.2%
[3]
  viability, T/C: 65.3%
[4]
  viability, T/C: 42.1%
Second compound 0.1 µM, first compound 3.16 µM
  viability, T/C: 22%
Second compound 0.1 µM, first compound 10 µM
  viability, T/C: 9.29%
[5]
  viability, T/C: 95.1%
[6]
  viability, T/C: 104%
[7]
  viability, T/C: 62.3%
[8]
  viability, T/C: 47.7%
Second compound 0.316 µM, first compound 3.16 µM
  viability, T/C: 20.8%
Second compound 0.316 µM, first compound 10 µM
  viability, T/C: 7.91%
[9]
  viability, T/C: 95.3%
[10]
  viability, T/C: 80.5%
[11]
  viability, T/C: 69.5%
[12]
  viability, T/C: 36.2%
Second compound 1 µM, first compound 3.16 µM
  viability, T/C: 17.8%
Second compound 1 µM, first compound 10 µM
  viability, T/C: 7.07%
[13]
  viability, T/C: 96.4%
[14]
  viability, T/C: 101%
[15]
  viability, T/C: 67.1%
[16]
  viability, T/C: 34.6%
Second compound 3.16 µM, first compound 3.16 µM
  viability, T/C: 17.9%
Second compound 3.16 µM, first compound 10 µM
  viability, T/C: 7.17%
[17]
  viability, T/C: 64.4%
[18]
  viability, T/C: 59.7%
[19]
  viability, T/C: 42%
[20]
  viability, T/C: 28.8%
Second compound 10 µM, first compound 3.16 µM
  viability, T/C: 15.8%
Second compound 10 µM, first compound 10 µM
  viability, T/C: 6.83%

## CCN(c1cc(-c2ccc(CN3CCOCC3)cc2)cc(C(=O)NCc2c(C)cc(C)[nH]c2=O)c1C)C1CCOCC1 + NC1CC1c1ccc(-c2cccc(O)c2)cc1
Second compound 0.1 µM
  IC50: 219 nM
Second compound 0.316 µM
  IC50: 214 nM
Second compound 1 µM
  IC50: 171 nM
Second compound 3.16 µM
  IC50: 171 nM
Second compound 10 µM
  IC50: 69.1 nM
[21]
  viability, T/C: 98.8%
[22]
  viability, T/C: 89.1%
[23]
  viability, T/C: 64.3%
[24]
  viability, T/C: 42.8%
Second compound 0.1 µM, first compound 0.949 µM
  viability, T/C: 34.9%
Second compound 0.1 µM, first compound 3 µM
  viability, T/C: 23%
[25]
  viability, T/C: 90%
[26]
  viability, T/C: 98.7%
[27]
  viability, T/C: 62.1%
[28]
  viability, T/C: 46.3%
Second compound 0.316 µM, first compound 0.949 µM
  viability, T/C: 33.7%
Second compound 0.316 µM, first compound 3 µM
  viability, T/C: 25.8%
[29]
  viability, T/C: 82.3%
[30]
  viability, T/C: 79%
[31]
  viability, T/C: 57.2%
[32]
  viability, T/C: 41.7%
Second compound 1 µM, first compound 0.949 µM
  viability, T/C: 28.6%
Second compound 1 µM, first compound 3 µM
  viability, T/C: 22.3%
[33]
  viability, T/C: 80%
[34]
  viability, T/C: 86.1%
[35]
  viability, T/C: 61.8%
[36]
  viability, T/C: 37.5%
Second compound 3.16 µM, first compound 0.949 µM
  viability, T/C: 29.3%
Second compound 3.16 µM, first compound 3 µM
  viability, T/C: 22.1%
[37]
  viability, T/C: 76.6%
[38]
  viability, T/C: 60.4%
[39]
  viability, T/C: 46.5%
[40]
  viability, T/C: 33.7%
Second compound 10 µM, first compound 0.949 µM
  viability, T/C: 29%
Second compound 10 µM, first compound 3 µM
  viability, T/C: 22.3%

## Nc1ncn(C2CC(O)C(CO)S2)c(=O)n1 (stereo not given) + NC1CC1c1ccc(-c2cccc(O)c2)cc1
Second compound 0.1 µM
  IC50: 21.2 nM
Second compound 0.316 µM
  IC50: 18.9 nM
Second compound 1 µM
  IC50: 11.8 nM
Second compound 3.16 µM
  IC50: 10.7 nM
Second compound 10 µM
  IC50: 3.83 nM
Second compound 0.1 µM, first compound 0.000949 µM
  viability, T/C: 104%
Second compound 0.1 µM, first compound 0.003 µM
  viability, T/C: 87.9%
[21]
  viability, T/C: 56.7%
[22]
  viability, T/C: 47.2%
[23]
  viability, T/C: 31.8%
[24]
  viability, T/C: 19.5%
Second compound 0.316 µM, first compound 0.000949 µM
  viability, T/C: 84%
Second compound 0.316 µM, first compound 0.003 µM
  viability, T/C: 77.1%
[25]
  viability, T/C: 57.8%
[26]
  viability, T/C: 45.1%
[27]
  viability, T/C: 26.3%
[28]
  viability, T/C: 16.4%
Second compound 1 µM, first compound 0.000949 µM
  viability, T/C: 80.8%
Second compound 1 µM, first compound 0.003 µM
  viability, T/C: 76%
[29]
  viability, T/C: 49.6%
[30]
  viability, T/C: 35.4%
[31]
  viability, T/C: 23.9%
[32]
  viability, T/C: 13.9%
Second compound 3.16 µM, first compound 0.000949 µM
  viability, T/C: 90.4%
Second compound 3.16 µM, first compound 0.003 µM
  viability, T/C: 81.3%
[33]
  viability, T/C: 47.7%
[34]
  viability, T/C: 33%
[35]
  viability, T/C: 22.5%
[36]
  viability, T/C: 13.5%
Second compound 10 µM, first compound 0.000949 µM
  viability, T/C: 62.5%
Second compound 10 µM, first compound 0.003 µM
  viability, T/C: 53.6%
[37]
  viability, T/C: 39.1%
[38]
  viability, T/C: 29.9%
[39]
  viability, T/C: 19.8%
[40]
  viability, T/C: 13.8%

## O=C(C=Cn1cnc(-c2cc(C(F)(F)F)cc(C(F)(F)F)c2)n1)NNc1cnccn1 + NC1CC1c1ccc(-c2cccc(O)c2)cc1
Second compound 0.1 µM
  IC50: < 3.16 nM
Second compound 0.316 µM
  IC50: < 3.16 nM
Second compound 1 µM
  IC50: < 3.16 nM
Second compound 3.16 µM
  IC50: < 3.16 nM
Second compound 10 µM
  IC50: < 3.16 nM
Second compound 0.1 µM, first compound 0.00316 µM
  viability, T/C: 38.1%
Second compound 0.1 µM, first compound 0.01 µM
  viability, T/C: 30.3%
[1]
  viability, T/C: 20.7%
[2]
  viability, T/C: 3.44%
[3]
  viability, T/C: 1.7%
[4]
  viability, T/C: 0.86%
Second compound 0.316 µM, first compound 0.00316 µM
  viability, T/C: 36.9%
Second compound 0.316 µM, first compound 0.01 µM
  viability, T/C: 31%
[5]
  viability, T/C: 19.6%
[6]
  viability, T/C: 3.54%
[7]
  viability, T/C: 1.34%
[8]
  viability, T/C: 0.96%
Second compound 1 µM, first compound 0.00316 µM
  viability, T/C: 38.5%
Second compound 1 µM, first compound 0.01 µM
  viability, T/C: 28.9%
[9]
  viability, T/C: 18.1%
[10]
  viability, T/C: 3.32%
[11]
  viability, T/C: 1.45%
[12]
  viability, T/C: 0.94%
Second compound 3.16 µM, first compound 0.00316 µM
  viability, T/C: 33.8%
Second compound 3.16 µM, first compound 0.01 µM
  viability, T/C: 34.2%
[13]
  viability, T/C: 19.7%
[14]
  viability, T/C: 3.27%
[15]
  viability, T/C: 1.83%
[16]
  viability, T/C: 1.13%
Second compound 10 µM, first compound 0.00316 µM
  viability, T/C: 31%
Second compound 10 µM, first compound 0.01 µM
  viability, T/C: 28.9%
[17]
  viability, T/C: 18.3%
[18]
  viability, T/C: 4.7%
[19]
  viability, T/C: 2.04%
[20]
  viability, T/C: 1.62%
